What was measured:
Type in all cases: functional
[1] = Growth inhibition of human LOXIMVI cells after 48 hrs by sulforhodamine B assay; details: LOX IMVI
IGROV-1 = experiment: Growth inhibition of human IGROV1 cells assessed as cell growth at 10^-8 M after 48 hrs by sulforhodamine B assay; details: IGROV-1, 48 h; for growth at 0.01 µM: read-out: Activity; for TGI: read-out: pTGI (converted)
[2] = Growth inhibition of human SF295 cells assessed as cell growth at 10^-6 M after 48 hrs by sulforhodamine B assay; details: SF-295, 48 h, read-out: Activity
MCF7 = experiment: Growth inhibition of human MCF7 cells after 48 hrs by sulforhodamine B assay; details: MCF7, 48 h; for CC50: read-out: LC50 (the source's name)
Malme-3M = experiment: Growth inhibition of human MALME-3M cells after 48 hrs by sulforhodamine B assay; details: for CC50: read-out: LC50 (the source's name)
SK-OV-3 = experiment: Growth inhibition of human SKOV3 cells after 48 hrs by sulforhodamine B assay; details: SK-OV-3, 48 h; for CC50: read-out: LC50 (the source's name)
SN12C [3] = experiment: Growth inhibition of human SN12C cells assessed as cell growth at 10^-6 M after 48 hrs by sulforhodamine B assay; details: read-out: Activity
[4] = Growth inhibition of human OVCAR8 cells assessed as cell growth at 10^-7 M after 48 hrs by sulforhodamine B assay; details: OVCAR-8, 48 h, read-out: Activity
K562 = experiment: Growth inhibition of human K562 cells assessed as cell growth at 10^-4 M after 48 hrs by sulforhodamine B assay; details: K562, 48 h, read-out: Activity
CAKI-1 = experiment: Growth inhibition of human CAKI-1 cells assessed as cell growth at 10^-8 M after 48 hrs by sulforhodamine B assay; details: CAKI-1, 48 h; for growth at 0.01 µM: read-out: Activity; for CC50: read-out: pLC50 (the source's name) (converted); for TGI: read-out: pTGI (converted)
COLO 205 [5] = experiment: Growth inhibition of human COLO205 cells assessed as cell growth at 10^-7 M after 48 hrs by sulforhodamine B assay; details: COLO 205, 48 h, read-out: Activity
COLO 205 [6] = experiment: Induction of apoptosis in human COLO205 cells assessed as late apoptosis cells level at 10 uM after 24 hrs by Annexin V/propidium iodide staining-based fluorescence microscopy
MDA-MB-435 = experiment: Growth inhibition of human MDA-MB-435 cells assessed as cell growth at 10^-6 M after 48 hrs by sulforhodamine B assay; details: MDA-MB-435, 48 h, read-out: Activity
MDA-MB-231 = experiment: Growth inhibition of human MDA-MB-231 cells assessed as cell growth at 10^-4 M after 48 hrs by sulforhodamine B assay; details: MDA-MB-231, 48 h, read-out: Activity
NCI-H23 [7] = experiment: Growth inhibition of human NCI-H23 cells after 48 hrs by sulforhodamine B assay; details: NCI-H23, 48 h; for CC50: read-out: LC50 (the source's name)
[8] = Growth inhibition of human SF539 cells assessed as cell growth at 10^-6 M after 48 hrs by sulforhodamine B assay; details: SF-539, 48 h, read-out: Activity
COLO 205 [9] = experiment: Induction of apoptosis in human COLO205 cells assessed as necrotic apoptosis cells level at 10 uM after 24 hrs by Annexin V/propidium iodide staining-based fluorescence microscopy
MDA-MB-468 = experiment: Growth inhibition of human MDA-MB-468 cells after 48 hrs by sulforhodamine B assay; details: MDA-MB-468, 48 h; for CC50: read-out: LC50 (the source's name)
SN12C [10] = experiment: Growth inhibition of human SN12C cells assessed as cell growth at 10^-4 M after 48 hrs by sulforhodamine B assay; details: read-out: Activity
NCI-H226 = experiment: Growth inhibition of human NCI-H226 cells assessed as cell growth at 10^-4 M after 48 hrs by sulforhodamine B assay; details: NCI-H226, 48 h, read-out: Activity
SK-MEL-2 = experiment: Growth inhibition of human SK-MEL-2 cells after 48 hrs by sulforhodamine B assay; details: SK-MEL-2, 48 h; for CC50: read-out: LC50 (the source's name)
SF-268 [11] = experiment: Growth inhibition of human SF268 cells assessed as cell growth at 10^-7 M after 48 hrs by sulforhodamine B assay; details: SF-268, 48 h, read-out: Activity
SR = experiment: Growth inhibition of human SR cells assessed as cell growth at 10^-6 M after 48 hrs by sulforhodamine B assay; details: read-out: Activity
SF-268 [12] = experiment: Growth inhibition of human SF268 cells assessed as cell growth at 10^-6 M after 48 hrs by sulforhodamine B assay; details: SF-268, 48 h, read-out: Activity
[13] = Growth inhibition of human RXF393 cells after 48 hrs by sulforhodamine B assay; details: RXF 393, 48 h; for CC50: read-out: LC50 (the source's name)
M14 = experiment: Growth inhibition of human M14 cells after 48 hrs by sulforhodamine B assay; details: M14, 48 h; for CC50: read-out: LC50 (the source's name)
[14] = Growth inhibition of human OVCAR3 cells after 48 hrs by sulforhodamine B assay; details: OVCAR-3, 48 h; for CC50: read-out: LC50 (the source's name)
NCI-H522 = experiment: Growth inhibition of human NCI-H522 cells assessed as cell growth at 10^-8 M after 48 hrs by sulforhodamine B assay; details: NCI-H522, 48 h; for growth at 0.01 µM: read-out: Activity; for CC50: read-out: pLC50 (the source's name) (converted); for TGI: read-out: pTGI (converted)
SW-620 = experiment: Growth inhibition of human SW620 cells assessed as cell growth at 10^-4 M after 48 hrs by sulforhodamine B assay; details: SW-620, 48 h, read-out: Activity
SNB-19 = experiment: Growth inhibition of human SNB19 cells after 48 hrs by sulforhodamine B assay; details: SNB-19, 48 h; for CC50: read-out: LC50 (the source's name)
[15] = Growth inhibition of human SF295 cells assessed as cell growth at 10^-4 M after 48 hrs by sulforhodamine B assay; details: SF-295, 48 h, read-out: Activity
NCI-H23 [16] = experiment: Growth inhibition of human NCI-H23 cells assessed as cell growth at 10^-7 M after 48 hrs by sulforhodamine B assay; details: NCI-H23, 48 h, read-out: Activity
[17] = Growth inhibition of human RXF393 cells assessed as cell growth at 10^-8 M after 48 hrs by sulforhodamine B assay; details: RXF 393, 48 h; for growth at 0.01 µM: read-out: Activity; for CC50: read-out: pLC50 (the source's name) (converted); for TGI: read-out: pTGI (converted)
[18] = Growth inhibition of human LOXIMVI cells assessed as cell growth at 10^-6 M after 48 hrs by sulforhodamine B assay; details: LOX IMVI, read-out: Activity

O=C1/C(=C/c2ccc(Cl)cc2Cl)CN(S(=O)(=O)c2ccccc2)C/C1=C\c1ccc(Cl)cc1Cl
GI50 [1]: 203 nM | TGI [1]: 508 nM | GI50 (IGROV-1): 316 nM | LC50 (IGROV-1): > 100000 nM | growth at 0.01 µM (IGROV-1): 116% | TGI (IGROV-1): 646 nM | growth at 1 µM [2]: 13% | GI50 (MCF7): 305 nM | TGI (MCF7): 100000 nM | CC50 (MCF7): > 100000 nM | GI50 (Malme-3M): 3210 nM | CC50 (Malme-3M): > 100000 nM | GI50 (SK-OV-3): 7950 nM | TGI (SK-OV-3): > 100000 nM | CC50 (SK-OV-3): > 100000 nM | growth at 1 µM (SN12C [3]): -15% | growth at 0.1 µM [4]: 94% | growth at 100 µM (K562): 3% | GI50 (CAKI-1): 1820 nM | growth at 0.01 µM (CAKI-1): 89% | CC50 (CAKI-1): > 100000 nM | TGI (CAKI-1): 5750 nM | growth at 0.1 µM (COLO 205 [5]): 107% | Activity (COLO 205 [6]): 18% | growth at 1 µM (MDA-MB-435): 50% | growth at 100 µM (MDA-MB-231): -49% | GI50 (NCI-H23 [7]): 423 nM | TGI (NCI-H23 [7]): 2710 nM | CC50 (NCI-H23 [7]): > 100000 nM | growth at 1 µM [8]: 22% | Activity (COLO 205 [9]): 1% | GI50 (MDA-MB-468): 1130 nM | TGI (MDA-MB-468): 3890 nM | CC50 (MDA-MB-468): > 100000 nM | growth at 100 µM (SN12C [10]): -44% | growth at 100 µM (NCI-H226): -55% | GI50 (SK-MEL-2): 6010 nM | TGI (SK-MEL-2): > 100000 nM | CC50 (SK-MEL-2): > 100000 nM | growth at 0.1 µM (SF-268 [11]): 98% | growth at 1 µM (SR): -5% | growth at 1 µM (SF-268 [12]): 24% | GI50 [13]: 1060 nM | TGI [13]: 2420 nM | CC50 [13]: 5540 nM | GI50 (M14): 3660 nM | TGI (M14): > 100000 nM | CC50 (M14): > 100000 nM | GI50 [14]: 310 nM | TGI [14]: 818 nM | CC50 [14]: 5010 nM | GI50 (NCI-H522): 851 nM | growth at 0.01 µM (NCI-H522): 95% | CC50 (NCI-H522): 9770 nM | TGI (NCI-H522): 3020 nM | growth at 100 µM (SW-620): -27% | GI50 (SNB-19): 313 nM | TGI (SNB-19): 2880 nM | CC50 (SNB-19): > 100000 nM | growth at 100 µM [15]: -11% | growth at 0.1 µM (NCI-H23 [16]): 104% | GI50 [17]: 1070 nM | growth at 0.01 µM [17]: 78% | CC50 [17]: 5500 nM | TGI [17]: 2400 nM | growth at 1 µM [18]: -37%

Cc1ccc(S(=O)(=O)N2C/C(=C\c3cc(F)cc(F)c3)C(=O)/C(=C/c3cc(F)cc(F)c3)C2)cc1
GI50 [1]: 175 nM | TGI [1]: 339 nM | CC50 ([1]; read-out: LC50 (the source's name)): 656 nM | GI50 (IGROV-1): 437 nM | LC50 (IGROV-1): 5130 nM | growth at 0.01 µM (IGROV-1): 106% | TGI (IGROV-1): 1550 nM | growth at 1 µM [2]: 29% | GI50 (MCF7): 175 nM | TGI (MCF7): 1450 nM | CC50 (MCF7): 6880 nM | GI50 (Malme-3M): 274 nM | TGI (Malme-3M): 742 nM | CC50 (Malme-3M): 3810 nM | GI50 (SK-OV-3): 1840 nM | TGI (SK-OV-3): 5620 nM | CC50 (SK-OV-3): 37200 nM | growth at 1 µM (SN12C [3]): 11% | growth at 0.1 µM [4]: 82% | growth at 100 µM (K562): -41% | GI50 (CAKI-1): 363 nM | growth at 0.01 µM (CAKI-1): 94% | CC50 (CAKI-1): 61700 nM | TGI (CAKI-1): 2450 nM | growth at 0.1 µM (COLO 205 [5]): 106% | Activity (COLO 205 [6]): 43% | growth at 1 µM (MDA-MB-435): -18% | growth at 100 µM (MDA-MB-231): -82% | GI50 (NCI-H23 [7]): 1750 nM | TGI (NCI-H23 [7]): 4990 nM | CC50 (NCI-H23 [7]): 26800 nM | growth at 1 µM [8]: 61% | Activity (COLO 205 [9]): 3% | GI50 (MDA-MB-468): 349 nM | TGI (MDA-MB-468): 1710 nM | CC50 (MDA-MB-468): 5770 nM | growth at 100 µM (SN12C [10]): -96% | growth at 100 µM (NCI-H226): -32% | GI50 (SK-MEL-2): 1970 nM | TGI (SK-MEL-2): 4660 nM | CC50 (SK-MEL-2): 14800 nM | growth at 0.1 µM (SF-268 [11]): 100% | growth at 1 µM (SR): -20% | growth at 1 µM (SF-268 [12]): 21% | GI50 [13]: 723 nM | TGI [13]: 2140 nM | CC50 [13]: 5130 nM | GI50 (M14): 359 nM | TGI (M14): 1400 nM | CC50 (M14): 5910 nM | GI50 [14]: 441 nM | TGI [14]: 1440 nM | CC50 [14]: 4560 nM | GI50 (NCI-H522): 316 nM | growth at 0.01 µM (NCI-H522): 100% | CC50 (NCI-H522): 3890 nM | TGI (NCI-H522): 955 nM | growth at 100 µM (SW-620): -74% | GI50 (SNB-19): 220 nM | TGI (SNB-19): 752 nM | CC50 (SNB-19): 2820 nM | growth at 100 µM [15]: -75% | growth at 0.1 µM (NCI-H23 [16]): 100% | GI50 [17]: 724 nM | growth at 0.01 µM [17]: 96% | CC50 [17]: 5130 nM | TGI [17]: 2140 nM | growth at 1 µM [18]: -82%
